Measurements as given in US8404689B2, “Heterocyclic amide compounds useful as kinase inhibitors” (Bristol-Myers Squibb Company, priority 2006, dated 2013).

Molecular target: T1, p38alpha (Homo sapiens, UniProt Q16539)
T1 construct: GST (N); made in house; host or cells: E. coli (pGEX vector)
Experiment: p38α Assay (Caliper LabChip, fluoresceinated peptide)
Assay type: biochemical
Conditions: ratio of p38 beta IC50 to p38 alpha IC50; higher numbers indicate greater alpha selectivity

T1 sequence (Q16539 whole entry): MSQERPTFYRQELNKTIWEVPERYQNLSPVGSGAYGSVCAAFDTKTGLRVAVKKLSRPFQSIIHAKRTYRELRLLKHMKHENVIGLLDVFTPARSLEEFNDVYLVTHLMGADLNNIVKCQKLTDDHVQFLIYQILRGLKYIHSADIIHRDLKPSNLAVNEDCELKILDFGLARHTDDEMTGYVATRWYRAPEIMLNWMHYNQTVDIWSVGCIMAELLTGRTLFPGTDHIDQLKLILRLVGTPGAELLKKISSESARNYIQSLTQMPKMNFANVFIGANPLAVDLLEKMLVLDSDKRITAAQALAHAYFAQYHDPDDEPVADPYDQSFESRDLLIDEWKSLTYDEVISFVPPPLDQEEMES

Row | Compound | beta/alpha (alpha selectivity)
1 | Cc1ccc(C(=O)NC2CC2)cc1NC(=O)c1ccc(-c2cccc(C(=O)O)c2)s1 [Example 146, 3-(5-(5-(cyclopropylcarbamoyl)-2-methylphenylcarbamoyl)thiophen-2-yl)benzoicacid] | 248
2 | Cc1ccc(C(=O)NC2CC2)cc1NC(=O)c1ccc(-c2cc(F)cc(F)c2)s1 [Example 148, N-(5-(cyclopropylcarbamoyl)-2-methylphenyl)-5-(3,5-difluorophenyl)thiophene-2-carboxamide] | 160
3 | COc1ccc(-c2ccc(C(=O)Nc3cc(C(=O)NC4CC4)ccc3C)s2)c(OC)c1 [Example 153, N-(5-(cyclopropylcarbamoyl)-2-methylphenyl)-5-(2,4-dimethoxyphenyl)thiophene-2-carboxamide] | 228
4 | Cc1ccc(C(=O)NC2CC2)cc1NC(=O)c1ccc(-c2cccc(N)c2)s1 [Example 159, 5-(3-aminophenyl)-N-(5-(cyclopropylcarbamoyl)-2-methylphenyl)thiophene-2-carboxamide] | 200
5 | Cc1ccc(C(=O)NC2CC2)cc1NC(=O)c1ccc(-c2cccc(CO)c2)s1 [Example 160, N-(5-(cyclopropylcarbamoyl)-2-methylphenyl)-5-(3-(hydroxymethyl)phenyl)thiophene-2-carboxamide] | 233
6 | Cc1ccc(C(=O)NC2CC2)cc1NC(=O)c1ccc(-c2ccc(F)nc2)s1 [Example 169, N-(5-(cyclopropylcarbamoyl)-2-methylphenyl)-5-(6-fluoropyridin-3-yl)thiophene-2-carboxamide] | 257
7 | CCNC(=O)c1ccc(-c2ccc(C(=O)Nc3cc(C(=O)NC4CC4)ccc3C)s2)cc1 [Example 181, N-(5-(cyclopropylcarbamoyl)-2-methylphenyl)-5-(4-(ethylcarbamoyl)phenyl)thiophene-2-carboxamide] | 240
8 | Cc1ccc(C(=O)NC2CC2)cc1NC(=O)c1ccc(-c2ccc(C(=O)NC(C)C)cc2)s1 [Example 182, N-(5-(cyclopropylcarbamoyl)-2-methylphenyl)-5-(4-(isopropylcarbamoyl)phenyl)thiophene-2-carboxamide] | 118
9 | Cc1ccc(C(=O)NC2CC2)cc1NC(=O)c1ccc(-c2ccc(C(N)=O)cc2)s1 [Example 185, 5-(4-carbamoylphenyl)-N-(5-(cyclopropylcarbamoyl)-2-methylphenyl)thiophene-2-carboxamide] | 162
10 | Cc1ccc(C(=O)NC2CC2)cc1NC(=O)c1ccc(-c2ccc[n+]([O-])c2)s1 [Example 196, 3-(5-(5-(Cyclopropylcarbamoyl)-2-methylphenylcarbamoyl)thiophen-2-yl)pyridine 1-oxide] | 225
11 | Cc1ccc(C(=O)NC2CC2)cc1NC(=O)c1cc(-c2cccnc2)cs1 [Example 204, N-(5-(Cyclopropylcarbamoyl)-2-methylphenyl)-4-(pyridin-3-yl)thiophene-2-carboxamide] | 379
12 | Cc1ccc(C(=O)NC2CC2)cc1NC(=O)c1ccc(-c2ncccc2C(F)(F)F)s1 [Example 210, N-(5-(Cyclopropylcarbamoyl)-2-methylphenyl)-5-(3-(trifluoromethyl)pyridin-2-yl)thiophene-2-carboxamide] | 433
13 | Cc1ccc(C(=O)NC2CC2)cc1NC(=O)c1c[nH]c2ccccc12 [Example 221, N-(5-(cyclopropylcarbamoyl)-2-methylphenyl)-1H-indole-3-carboxamide] | 540
14 | Cc1ccc(C(=O)NC2CC2)cc1NC(=O)c1ccc2c(C#N)cn(C)c2c1 [Example 223, 3-Cyano-N-(5-(cyclopropylcarbamoyl)-2-methylphenyl)-1-methyl-1H-indole-6-carboxamide] | 423
15 | Cc1ccc(C(=O)NC2CC2)cc1NC(=O)c1ccc2ccn(CCN3CCOCC3)c2c1 [Example 225, N-(5-(Cyclopropylcarbamoyl)-2-methylphenyl)-1-(2-morpholinoethyl)-1H-indole-6-carboxamide] | 448
